Like-named read-outs stand apart in the source and are kept apart here. Where a SMILES comes first, the peptide text is derived from it. Bridges are numbered along the chain shown (N, C = ends).
Assays:
KLK4 [1] = molecular target: T1, KLK4 (Homo sapiens, UniProt Q9Y5K2); experiment: Inhibition of fibrinogen proteolysis by KLK4 (SDS-PAGE); type: biochemical; set-up: polyhistidine (C); made in house; host or cells: Sf9 insect cells; conditions: 7 µM fibrinogen, 90 min
Protocol: (§1) Assays with thrombin and trypsin included 10 mM CaCl2. […] Proteolysis fragments were separated on 10% polyacrylamide gels.

KLK4 [2] = molecular target: T1, KLK4; experiment: biochemical
Protocol: (§3) Increasing concentrations of inhibitors were incubated with various concentration of protease (final concentrations: KLK4, 1.5 nM; KLK12, 15 nM; KLK14, 2 nM; trypsin, 1 nM; matriptase, 4 nM; thrombin, 25 nM; α-chymotrypsin 25 nM) for 20 min in 200 µl assay buffer (100 mM Tris-HCl, 100 mM NaCl2, 0.005% triton-X, pH 8.0). Assays with thrombin and trypsin included 10 mM CaCl2. Enzyme activity was initiated by addition of substrate in 100 µl assay buffer (final concentration 100 µM; see Table 2). The rate of hydrolysis was measured at 405 nm over 7 min and was linear over this period. […] For SFTI-FCQR Asp14, K i was determined by inhibition at various substrate concentrations using the competitive inhibition model and non-linear regression in Prism 5 (GraphPad Software Inc). The K i for this inhibitor was also determined using the Morrison equation for tight binding inhibitors [43] (FVQR-pNA K M = 679.9±113.1 µM [16]) and non-linear regression in Prism 5. […] The k on and k off were determined from the lag phases and steady state of inhibition as previously described [44] using assay conditions as above and 500 µM substrate.

KLK4 [3] = molecular target: T1, KLK4
Protocol: as §3

[4] = tested on: LNCaP, 22Rv1 and PC3 cells; set-up: method as in PMID 19549601; conditions: cited from earlier work
Thrombin [5] = molecular target: T2, Thrombin (Homo sapiens, UniProt P00734); set-up: method as in PMID 11549459; conditions: substrate N-t-Boc-LRR-AMC; cited from earlier work
T2 construct: Bovine β-trypsin, bovine α-chymotrypsin and human thrombin were obtained from Sigma; purchased Sigma

KLK14 [6] = molecular target: T3, KLK14 (Homo sapiens, UniProt Q9P0G3); experiment: Inhibition of fibrinogen proteolysis by KLK14 (SDS-PAGE); type: biochemical; conditions: up to 10,000 nM inhibitor; 7 µM fibrinogen, 90 min
T3 construct: polyhistidine (C); made in house; host or cells: Sf9 insect cells
T3 sequence (Q9P0G3 25-251): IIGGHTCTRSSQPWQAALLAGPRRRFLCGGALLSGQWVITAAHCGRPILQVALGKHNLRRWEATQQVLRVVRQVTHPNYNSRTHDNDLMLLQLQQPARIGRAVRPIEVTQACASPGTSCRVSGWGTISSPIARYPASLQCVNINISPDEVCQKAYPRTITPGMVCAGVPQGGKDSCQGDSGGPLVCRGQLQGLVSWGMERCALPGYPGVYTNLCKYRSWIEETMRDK
Protocol: as §1

Thrombin [7] = molecular target: T2, Thrombin; experiment: Amidolytic inhibition assay of thrombin; type: biochemical
Protocol: as §1

trypsin = molecular target: T4, trypsin (Bos taurus, UniProt P00760); experiment: Inhibition of fibrinogen proteolysis by trypsin (SDS-PAGE); type: biochemical, bovine; conditions: up to 10,000 nM inhibitor; 7 µM fibrinogen, 15 min
T4 construct: Bovine β-trypsin, bovine α-chymotrypsin and human thrombin were obtained from Sigma; purchased Sigma
T4 sequence (P00760 24-246): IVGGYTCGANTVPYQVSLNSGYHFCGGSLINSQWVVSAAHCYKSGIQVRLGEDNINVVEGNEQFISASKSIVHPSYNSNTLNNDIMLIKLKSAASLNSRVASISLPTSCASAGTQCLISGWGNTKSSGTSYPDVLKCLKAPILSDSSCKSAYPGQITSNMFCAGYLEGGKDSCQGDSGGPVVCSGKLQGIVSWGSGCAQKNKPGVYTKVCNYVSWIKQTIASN
Protocol: as §1

Matriptase = molecular target: T5, Matriptase (Homo sapiens, UniProt Q9Y5Y6); experiment: Amidolytic inhibition assay of matriptase; type: biochemical
T5 construct: purchased R&D Systems
T5 sequence (Q9Y5Y6 615-855 limits assumed): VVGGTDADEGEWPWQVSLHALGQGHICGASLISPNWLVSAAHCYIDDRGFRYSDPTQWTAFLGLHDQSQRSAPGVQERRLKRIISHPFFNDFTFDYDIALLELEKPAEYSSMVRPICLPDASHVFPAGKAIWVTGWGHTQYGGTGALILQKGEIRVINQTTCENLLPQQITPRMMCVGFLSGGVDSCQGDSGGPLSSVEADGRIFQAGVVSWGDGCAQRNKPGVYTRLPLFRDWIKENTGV
Protocol: as §1

β-Trypsin = molecular target: T6, β-Trypsin (Bos taurus, UniProt P00760); experiment: Amidolytic inhibition assay of β-trypsin; type: biochemical, bovine
T6 construct: Bovine β-trypsin, bovine α-chymotrypsin and human thrombin were obtained from Sigma; purchased Sigma
T6 sequence (P00760 24-246): T4 sequence (P00760 24-246)
Protocol: as §1

[8] = Stability of SFTI variants in culture with prostate cancer cells; type: in vitro ADME; conditions: human; 1 µM inhibitor in serum-containing media on LNCaP, 22Rv1 and PC3 monolayers; residual KLK4 inhibition; read-out: half-life in cell culture
Protocol: (§2) The half-life in cell culture for SFTI-FCQR Asn14 and SFTI-FCQR Lys14 was determined using previously described methods. Briefly, monolayers of LNCaP, 22Rv1 and PC3 cells were established in RPMI 1640 medium supplemented with 10% foetal calf serum (HyClone), 100 U/ml penicillin (Invitrogen) and 100 µg/ml streptomycin (Invitrogen). Cells were treated ±1 µM inhibitor (SFTI-FCQR Asn14 or SFTI-FCQR Lys14) in fresh serum-containing media. Samples of media were taken at 24 hr intervals and boiled at 97°C for 15 min to denature serum protein. Residual inhibition by SFTI-FCQR variants was determined in competitive kinetic assays (as above), adding a volume of media to give 10 nM SFTI-FCQR Asn14 or 25 nM SFTI-FCQR Lys14 at 0 hr. Media without inhibitor was used to adjust for any endogenous media inhibition and data represent the mean ± SEM of three triplicate experiments.

KLK12 = molecular target: T7, KLK12 (Homo sapiens, UniProt Q9UKR0); experiment: Inhibition of fibrinogen proteolysis by KLK12 (SDS-PAGE); type: biochemical; conditions: up to 10,000 nM inhibitor; 7 µM fibrinogen, 180 min
T7 construct: purchased R&D Systems
T7 sequence (Q9UKR0 18-248): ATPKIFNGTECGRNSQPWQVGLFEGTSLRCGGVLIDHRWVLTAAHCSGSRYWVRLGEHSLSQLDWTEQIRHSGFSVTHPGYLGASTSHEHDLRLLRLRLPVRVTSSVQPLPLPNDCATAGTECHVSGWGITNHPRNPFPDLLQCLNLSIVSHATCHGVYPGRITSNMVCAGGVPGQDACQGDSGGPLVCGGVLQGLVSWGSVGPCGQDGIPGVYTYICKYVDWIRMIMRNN
Protocol: as §1

[9] = Bioavailability / serum levels in mice by LC-MS; type: in vivo; conditions: 3 mg/kg
Protocol: Stability and bioavailability of SFTI-FCQR Asn14 in vivo was assessed in BALB/cFoxn1/Arc mice by oral, intravenous and intraperitoneal delivery (3 mg/kg). Inhibitor was dissolved in PBS at a concentration of 0.6 mg/ml prior to dosing. Serum levels of SFTI-FCQR Asn14 were subsequently measured by Liquid Chromatography-Mass Spectrometry (LC-MS) at Tetra Q laboratories (University of Queensland, Brisbane, Australia). This study was carried out in strict accordance to the recommendations of the Australian Code of Practice for the Care and Use of Animals for Scientific purposes (7th edition 2004) and the protocol was approved by the University of Queensland Animal Ethics Committee (ABS group) which assigned the project approval code TetraQ/479/09/Bluebox. All efforts were made to minimize suffering by experimental animals.

α-chymotrypsin = molecular target: T8, α-chymotrypsin (Bos taurus, UniProt P00766); experiment: Amidolytic inhibition assay of α-chymotrypsin; type: biochemical, bovine
T8 construct: Bovine β-trypsin, bovine α-chymotrypsin and human thrombin were obtained from Sigma; purchased Sigma
Protocol: as §1

KLK14 [10] = molecular target: T3, KLK14; experiment: Amidolytic inhibition assay of KLK14 with pNA substrate; type: biochemical
Protocol: as §1

[11] = tested on: LNCaP, 22Rv1 and PC3 cells; experiment: Stability of SFTI variants in culture with prostate cancer cells; type: in vitro ADME; conditions: 1 µM inhibitor in serum-containing media on prostate cancer cells; residual KLK4 inhibition
Protocol: as §2

KLK4 [12] = molecular target: T1, KLK4; experiment: in vitro; conditions: recombinant KLK4 (isolated protease), pH 8
Protocol: as §3

[13] = relative to SFTI-FCQR Asp14 (Table 2)

T1 sequence (Q9Y5K2 31-254): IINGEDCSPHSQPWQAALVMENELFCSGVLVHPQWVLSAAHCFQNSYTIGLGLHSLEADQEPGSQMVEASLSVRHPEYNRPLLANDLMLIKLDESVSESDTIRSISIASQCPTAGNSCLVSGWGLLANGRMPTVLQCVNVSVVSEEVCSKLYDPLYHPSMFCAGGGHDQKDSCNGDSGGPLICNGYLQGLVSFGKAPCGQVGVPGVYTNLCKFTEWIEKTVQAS

## CC[C@H](C)[C@@H]1NC(=O)[C@@H]2CCCN2C(=O)[C@@H]2CCCN2C(=O)[C@H]([C@@H](C)CC)NC(=O)[C@H](CO)NC(=O)[C@H](CCCNC(=N)N)NC(=O)[C@H](CCC(N)=O)NC(=O)[C@@H]2CSSC[C@H](NC1=O)C(=O)N[C@@H](Cc1ccccc1)C(=O)N1CCC[C@H]1C(=O)N[C@@H](CC(=O)O)C(=O)NCC(=O)N[C@@H](Cc1ccccc1)C(=O)N2 [SFTI-FCQR Asp14] (cyclo(GFCQRSIPPICFPD); disulfide 3-11)
KLK4 [1]
  lowest inhibitor concentration blocking KLK4 proteolysis of fibrinogen: 250 nM
KLK4 [2]
  Ki: 3.89 ± 0.4 nM
KLK4 [3]; competitive inhibition model, various substrate concentrations, FVQRpNA
  Ki: 3.62 ± 0.26 nM
[4]
  stability in culture with prostate cancer cells: highly resistant to breakdown

## CC[C@H](C)[C@@H]1NC(=O)[C@@H]2CCCN2C(=O)[C@@H]2CCCN2C(=O)[C@H]([C@@H](C)CC)NC(=O)[C@H](CO)NC(=O)[C@H](CCCNC(=N)N)NC(=O)[C@H](CCC(N)=O)NC(=O)[C@@H]2CSSC[C@H](NC1=O)C(=O)N[C@@H](Cc1ccccc1)C(=O)N1CCC[C@H]1C(=O)N[C@@H](CO)C(=O)NCC(=O)N[C@@H](Cc1ccccc1)C(=O)N2 [SFTI-FCQR Ser14] (cyclo(GFCQRSIPPICFPS); disulfide 3-11)
KLK4 [2]
  IC50: 29.2 ± 1.08 nM
  Ki: 21.2 ± 3.81 nM

## SFTI-1: 1.4 kDa cyclic Bowman-Birk serine protease inhibitor isolated from sunflower (Helianthus annuus) seeds
Thrombin [5]
  Ki: 5050 nM

## CC[C@H](C)[C@@H]1NC(=O)[C@@H]2CCCN2C(=O)[C@@H]2CCCN2C(=O)[C@H]([C@@H](C)CC)NC(=O)[C@H](CO)NC(=O)[C@H](CCCNC(=N)N)NC(=O)[C@H](CCC(N)=O)NC(=O)[C@@H]2CSSC[C@H](NC1=O)C(=O)N[C@@H](Cc1ccccc1)C(=O)N1CCC[C@H]1C(=O)N[C@@H](C)C(=O)NCC(=O)N[C@@H](Cc1ccccc1)C(=O)N2 [SFTI-FCQR Ala14] (cyclo(GFCQRSIPPICFPA); disulfide 3-11)
KLK4 [2]
  IC50: 26.2 ± 0.85 nM
  Ki: 18.3 ± 3.36 nM

## CC[C@H](C)[C@@H]1NC(=O)[C@@H]2CCCN2C(=O)[C@@H]2CCCN2C(=O)[C@H]([C@@H](C)CC)NC(=O)[C@H](CO)NC(=O)[C@H](CCCNC(=N)N)NC(=O)[C@H](CCC(N)=O)NC(=O)[C@@H]2CSSC[C@H](NC1=O)C(=O)N[C@@H](Cc1ccccc1)C(=O)N1CCC[C@H]1C(=O)NCC(=O)NCC(=O)N[C@@H](Cc1ccccc1)C(=O)N2 [SFTI-FCQR Gly14] (cyclo(GFCQRSIPPICFPG); disulfide 3-11)
KLK4 [2]
  IC50: 14.7 ± 1.09 nM
  Ki: 10.4 ± 2.87 nM

## CC[C@H](C)[C@@H]1NC(=O)[C@@H]2CCCN2C(=O)[C@@H]2CCCN2C(=O)[C@H]([C@@H](C)CC)NC(=O)[C@H](CO)NC(=O)[C@H](CCCNC(=N)N)NC(=O)[C@H](CCC(N)=O)NC(=O)[C@@H]2CSSC[C@H](NC1=O)C(=O)N[C@@H](Cc1ccccc1)C(=O)N1CCC[C@H]1C(=O)N[C@@H](CC(N)=O)C(=O)NCC(=O)N[C@@H](Cc1ccccc1)C(=O)N2 [SFTI-FCQR Asn14] (cyclo(GFCQRSIPPICFPN); disulfide 3-11)
KLK14 [6]
  inhibition of KLK14 fibrinogen proteolysis: No inhibition
Thrombin [7]; at 10,000 nM inhibitor
  inhibition of thrombin: no inhibition
Thrombin [7]; substrate Bz-FVRpNA 100 µM, thrombin 25 nM, 10 mM CaCl2
  IC50: > 10000 nM
trypsin
  inhibition of trypsin fibrinogen proteolysis: No inhibition
Matriptase; at 10,000 nM inhibitor
  inhibition of matriptase: no inhibition
Matriptase; substrate Bz-FVRpNA 100 µM, matriptase 4 nM
  IC50: > 10000 nM
KLK4 [1]
  lowest inhibitor concentration blocking KLK4 proteolysis of fibrinogen: 62.5 nM
β-Trypsin; [13]
  relative increase in trypsin inhibition compared to SFTI-FCQR Asp14: two-fold
β-Trypsin; substrate BAPNA 100 µM, trypsin 1 nM, 10 mM CaCl2
  IC50: 2180 ± 145 nM
[8]
  half-life at 1 µM: 55 to 70 h
KLK4 [2]
  Ki: 0.0386 ± 0.006 nM
KLK4 [3]; calculated from k off and K i
  calculated second order rate constant (k off/K i): 8.03e+08 M⁻¹ s⁻¹
KLK4 [3]; [13]
  fold improvement in KLK4 inhibition compared to SFTI-FCQR Asp14: 125 fold
KLK4 [3]; substrate FVQRpNA 100 µM, KLK4 1.5 nM, 20 min preincubation (SFTI-FCQR Asn14: 0.15 nM KLK4 over 2 hr; Lys14 assayed immediately after addition)
  IC50: 0.0635 ± 0.0024 nM
KLK12
  inhibition of KLK12 fibrinogen proteolysis: No inhibition
[9]; BALB/cFoxn1/Arc, mouse, serum, IV and IP
  half-life: 25 to 28 min
[9]; BALB/cFoxn1/Arc, mouse, serum, IV and IP, irrespective of delivery route, read-out: residual inhibitor concentration in serum after 4 hours
  level at time molar at 4 h: 10 ± 0.8 nM
[9]; oral, LC-MS
  serum levels after oral delivery: did not result in detectable levels of inhibitor in serum
α-chymotrypsin; at 10,000 nM inhibitor
  inhibition of α-chymotrypsin: no inhibition
α-chymotrypsin; substrate WpNA 100 µM, α-chymotrypsin 25 nM
  IC50: > 10000 nM
KLK14 [10]; [13]
  relative increase in KLK14 inhibition compared to SFTI-FCQR Asp14: six-fold
KLK14 [10]; substrate Ac-GSLR-pNA 100 µM, KLK14 2 nM
  IC50: 251 ± 21.9 nM

## CC[C@H](C)[C@@H]1NC(=O)[C@@H]2CCCN2C(=O)[C@@H]2CCCN2C(=O)[C@H]([C@@H](C)CC)NC(=O)[C@H](CO)NC(=O)[C@H](CCCNC(=N)N)NC(=O)[C@H](CCC(N)=O)NC(=O)[C@@H]2CSSC[C@H](NC1=O)C(=O)N[C@@H](Cc1ccccc1)C(=O)N1CCC[C@H]1C(=O)N[C@@H](CCCCN)C(=O)NCC(=O)N[C@@H](Cc1ccccc1)C(=O)N2 [SFTI-FCQR Lys14] (cyclo(GFCQRSIPPICFPK); disulfide 3-11)
[11]
  initial activity lost within the first 24 hr in cell culture: two-thirds
KLK4 [2]
  IC50: 6.07 ± 0.13 nM
  Ki: 3.56 ± 0.27 nM
KLK4 [12]
  half-life: 56.3 ± 6.2 min
